From patent EP2746402A1, “Method of prognosis of Alzheimers disease and substrates for use therein” (Academisch Medisch Centrum, priority 2013, dated 2014) come the findings set out here.

Positions of bridges follow the written chain, without caps; N, C: chain ends. Non-standard residues stand in square brackets, D forms with d. Residues, ends and D or L forms follow the SMILES beside them. *: point of attachment. Ileψ(thiazoline)Cys = CC[C@H](C)[C@H](N)C1=N[C@H](C(=O)*)CS1; Sta = CC(C)C[C@H](N)[C@@H](O)CC(=O)O; dOrn = NCCC[C@@H](N)C(=O)O; Isovaleryl = CC(C)CC(=O)*; Cbz = O=C(OCc1ccccc1)*; CH2Cl = ClC*

Holding throughout (type): biochemical
Experiment [1] has as its system human hippocampal lysates. Briefly: Quenched Aβ peptide (qAβ) degradation assay in human hippocampal lysates at different Braak stages. To be noted: bacitracin added to hippocampal lysates prior to qAβ; all Braak stages. The procedure: Since the hippocampus is highly susceptible to Aβ accumulation, we examined whether the ability to degrade Aβ is affected in sporadic (sAD) using human hippocampal tissue of post-mortem brains with varying Braak stages. Included were Braak 0 (control, no AD) and Braak I-VI. When the ability to degrade qAβ was determined for each Braak stage (Fig. 2A, solid bars), a strong decrease in qAβ degradation rate was already observed in Braak stage I (t-test, two-tailed, p=0.03), which further decreased during the progression to Braak stage II (t-test, two-tailed, p=0.01). […] Also oligomerized Aβ was less well degraded with increasing Braak stage (Fig. 2B). AD progression can also be classified by plaque distribution in well defined brain areas giving a particular amyloid score, ranging from O (no plaques) to C. Similar to increasing Braak stages, the rate of qAβ degradation decreased with increasing amyloid score, being significant for hippocampal fractions of brains classified with amyloid score C (t-test, two-tailed, p=0.017) (Fig. 2C). […]
HFIP-treated aliquots of Aβ40 were resuspended in DMSO followed by sonication for 10 minutes, immediately before use. […] Degradation of the peptide was analyzed at 37°C using the FLUOstar OPTIMA (BMG Labtec.).

The next experiment relates to SH-SY5Y cell lysates. Briefly: Degradation of the quenched 12-mer peptide in SH-SY5Y cell lysates. An excerpt:
To proof that shorter variants of the substrates of the invention may also be used as a suitable substrate to measure IDE activity, we analyzed the degradation of a substrate having the amino acid sequence HQKLVFFACDBC, which contains the KLVFF region flanked by a quenched and fluorophore. In addition, we examined the effect of bacitracine, the inhibitor for IDE, on the degradation of this 12-mer peptide (see Figure 5), as well as its ability to aggregate and form oligomers.
The 12-mer substrate having the amino acid sequence HQKLVFFACDCB (SEQ ID NO:10) containing a fluorophore and quencher was synthesized as described before (Reits et al., 2004), introducing a fluorescein at the cysteine (position 11) and a quenching dabcyl group at the lysine (position 3). The substrate was sonificated immediately before use and added to 5 µg cell lysate. KMH buffer (110 mM KAc, 2 mM MgAc and 20 mM Hepes-KOH, pH 7.2) was added to a total volume of 50 µl. Degradation of the substrate was analyzed at 37°C using the FLUOstar OPTIMA (BMG Labtec.).

Experiment [2] relates to HEK293 cytosolic fractions. Briefly: Quenched Aβ peptide (qAβ) degradation assay in HEK293 cytosolic fractions, with and without protease inhibitors. The settings on record: protease inhibitor added to HEK293 cytosolic fractions prior to qAβ, 30 minutes at 4 °C; inhibitor concentrations 20-200 µM; fluorescence at 37°C. The text has this:
We developed a sensitive Aβ degradation assay by generating a quenched Aβ40 peptide containing a small fluorescein group and a quenching dabcyl group (Reits et al., 2004) flanking the KLVFF sequence present in the middle of the Aβ peptides that is a critical region for aggregation (Fig. 1A) (Tjernberg et al., 1996). A quenched Aβ42 peptide was difficult to synthesize as the peptide was too aggregation-prone during synthesis, preventing efficient labeling with the small fluorophore. […] The qAβ peptides were added to cytoplasmic fractions of mildly lysed HEK293 cells, thereby preventing contamination with extracellular membrane-bound or lysosomal proteases, resulting in an increase in fluorescent signal (Fig. 1B). To identify which proteases play a role in this Aβ clearance machinery, different protease inhibitors were added to the cytosolic fractions prior to adding the qAβ. […]
HEK cells were lysed in 25 µM digitonin (Sigma) in KMH buffer (110 mM KAc, 2 mM MgAc and 20 mM Hepes-KOH, pH 7.2). Human and mouse brain hippocampal tissue was lysed in ± 400 µl (adjusted to the amount of tissue) of homogenization buffer (50 mM Tris/HCl pH 7.5, 250 mM sucrose, 5 mM MgCl2 and freshly added 2 mM ATP, 1 mM DTT and 0.025 % digitonin (Sigma)). Tissue was homogenized on ice in homogenization buffer using a homogenizer. Cell lysates were incubated for 30 minutes on ice and centrifuged for 15 minutes at 14.000 rpm at 4 °C.
HFIP-treated aliquots of Aβ40 were resuspended in DMSO followed by sonication for 10 minutes, immediately before use. 75 ng (340 nM) of quenched Aβ40 was added to 5 µg protein from the cell lysates in KMH buffer (110 mM KAc, 2 mM MgAc and 20 mM Hepes-KOH, pH 7.2) to a total volume of 50 µl. Protease inhibitors (100 µM 1,10-phenanthroline, 200 µM bacitracin, 100 µM E64, 20 µM MG-132, 100 µM puromycin, 100 µM PMSF, 200 µM pepstatin A (all Sigma), 100 µM AAF-CMK, 100 µM amastatin or 50 µM bestatin (Enzo lifesciences AG), 50 µM PAQ-22 (Wako Chemicals), 100 µM Cpp-AAF-pNa (InstruChem), 50 µM PAQ-22 (SopaChem) and 100 µM butabindide (Tocris Bioscience)) were added to the cell lysates and incubated for 30 minutes at 4 °C. Degradation of the peptide was analyzed at 37°C using the FLUOstar OPTIMA (BMG Labtec.).

For `CC[C@H](C)[C@H](N)C1=N[C@H](C(=O)N[C@@H](CC(C)C)C(=O)N[C@H](CCC(=O)O)C(=O)N[C@H](C(=O)N[C@H]2CCCCNC(=O)[C@H](CC(N)=O)NC(=O)[C@@H](CC(=O)O)NC(=O)[C@H](Cc3cnc[nH]3)NC(=O)[C@@H](Cc3ccccc3)NC(=O)[C@H]([C@@H](C)CC)NC(=O)[C@@H](CCCN)NC2=O)[C@@H](C)CC)CS1` [bacitracin] ({Ileψ(thiazoline)Cys}-L[dE]IK[dOrn]I[dF]H[dD]N; lactam 4-C), in experiment [1], the “ability to degrade qAβ” value is “strongly reduced”. The “effect on degradation of the 12-mer peptide” value in the experiment on SH-SY5Y cell lysates (bacitracine added to SH-SY5Y cell lysates, monomeric 12-mer) is on record as “inhibited”. Besides, the “effect on qAβ degradation” value in experiment [2] was “reduced”.

Turning to `CC(C)C[C@H](NC(=O)[C@@H](O)[C@H](N)Cc1ccccc1)C(=O)O` [bestatin], the “effect on qAβ degradation” value in experiment [2] is on record as “did not show any effect”.

For the compound `CC(C)C[C@@H](N)[C@H](O)C(=O)N[C@H](C(=O)N[C@H](C(=O)N[C@@H](CC(=O)O)C(=O)O)C(C)C)C(C)C` [amasatin], the “effect on qAβ degradation” value in experiment [2] is listed as “did not show any effect”.

Regarding `CC(C)C[C@@H](C=O)NC(=O)[C@H](CC(C)C)NC(=O)[C@H](CC(C)C)NC(=O)OCc1ccccc1` [MG132] (Cbz-Leu-Leu-Leu-aldehyde), the “effect on qAβ degradation” value in experiment [2] is “did not show any effect”.

Take `CC(C)CC(=O)N[C@H](C(=O)N[C@H](C(=O)N[C@@H](CC(C)C)[C@@H](O)CC(=O)N[C@@H](C)C(=O)N[C@@H](CC(C)C)[C@@H](O)CC(=O)O)C(C)C)C(C)C` [pepstatin] (Isovaleryl-VV[Sta]A[Sta]-OH): the “effect on qAβ degradation” value in experiment [2] is “did not show any effect”.

As to `CC(C)C[C@H](NC(=O)[C@H]1O[C@@H]1C(=O)O)C(=O)NCCCCN=C(N)N` [E64], the “effect on qAβ degradation” value in experiment [2] is on record as “did not show any effect”.

Take `CCCCNC(=O)[C@@H]1Cc2ccccc2N1C(=O)[C@@H](N)CC` [butabindide]: in experiment [2], the “effect on qAβ degradation” value was “did not show any effect”.

For `O=S(=O)(F)Cc1ccccc1` [PMSF], the “effect on qAβ degradation” value in experiment [2] is “did not show any effect”.

For the compound `C[C@H](N)C(=O)N[C@@H](C)C(=O)N[C@@H](Cc1ccccc1)C(=O)CCl` [AAF-CMK] (H-Ala-Ala-Phe-CH2Cl), in experiment [2], the “effect on qAβ degradation” value is recorded as “did not show any effect”.

Consider `c1cnc2c(c1)ccc1cccnc12` [phenantroline, 1,10-phenanthroline], for which the “effect on qAβ degradation” value in experiment [2] is “significantly decreased”.

Consider HQKLVFFACDCB [12-mer peptide], for which the “plateau level of fluorescence after aggregation” value in the experiment with SH-SY5Y cell lysates (12-mer peptide incubated at 37°C (3 HR in PBS) before addition to SH-SY5Y cell lysates) is given as “lower plateau level”. In addition, in the experiment on SH-SY5Y cell lysates (monomeric form added to SH-SY5Y cell lysates), the “degradation of the 12-mer peptide” value is “degradation could be observed”.
